Source: patent US20240226085A1, “KYNRENINE AND DERIVATIVES THEREOF FOR TREATING ATROPHIC SCARRING” (BirchBioMed Inc., priority 2021, published 2024)

Assays:
[1] = system: rabbit ear hypertrophic scarring model; conditions: topical application to skin tissue; '523 FIG. 13; cited from earlier work
[2] = system: dermal fibroblasts; conditions: cited from earlier work
[3] = system: atrophic acne scarring on the face; test: Topical kynurenic acid (0.5% by weight) cream for reducing appearance of atrophic acne scarring (individual user reports); assay type: in vivo, human; conditions: person
From the text: FIG. 1A is a photographic representation of a target facial skin area of a subject with treatment-resistant stable atrophic scarring from acne before application of topical kynurenic acid (0.5% by weight) cream.
FIG. 1B is a photographic representation of the target facial skin area of the subject of FIG. 1A after bidaily use of topical kynurenic acid (0.5% by weight) for 8 weeks. […] The dashed black box in each image highlights the similar target area on the right cheek region in both images for comparison.
I. A topical cream was made as follows, kynurenic acid was solubilized in a phosphate buffered solution of 1 M NaOH and the pH was then adjusted to 5.5 at room temperature, this KynA solution was then added with steady mixing to a dermatological compounding base (Glaxal Base™, WellSpring, Ont., Canada) and adjusted to a pH of 6 before packaging in poly bottles. Topical cream was made at 0.15%, 0.25%, 0.4%, and 0.5% kynurenic acid by weight (Papp et al., 2018).
A person presented with significant atrophic acne scarring on the face and self-reported that their acne scars had been treatment resistant for >20 years. The person applied a topical cream containing 0.5% kynurenic acid by weight twice daily for a 3-month period to the site of the atrophic acne scarring, an application rate of approximately 17 ug of kynurenic acid per cm^2 of skin per application. Initial dermatological healing can be followed by visual inspection of the site. […] An illustrative image of the “before” and “during use” is shown as FIG. 1.
A person with atrophic acne scarring on the face self-reported that the scars were “mature”, “stable”, and had persisted for “>3 years”. The person applied a topical cream containing 0.5% kynurenic acid by weight once daily for a 2-month period at an application rate of approximately 2.5-5 micrograms kynurenic acid per square cm of skin per application.

SMILES | MMP-1 relative to controls [1] | collagen relative to controls [1] | MMP-1 expression ([2]; '523 FIG. 2) | MMP-3 expression ([2]; '523 FIG. 3) | collagen 1 expression ([2]; '523 FIG. 10) | fibronectin expression ([2]; '523 FIG. 16) | remarks of others on the user's atrophic acne scars ([3]; topical cream 0.5% by weight once daily, 2-month period) | user-reported appearance of holes and indents of atrophic acne scars ([3]; topical cream 0.5% by weight once daily, 2-month period, approx. 2.5-5 micrograms per square cm per application) | time at which the reported reduction in appearance started ([3]; topical cream 0.5% by weight twice daily) | unsolicited feedback from others on appearance of acne [atrophic scarring] ([3]; topical cream 0.5% by weight twice daily, 3-month period) | subject-reported perceived appearance of atrophic acne scarring ([3]; topical cream 0.5% by weight twice daily, 3-month period, approx. 17 ug per cm^2 per application)
Nc1ccccc1C(=O)CC(N)C(=O)O (racemic) [kynurenine] | increased | decreased |  |  |  |  |  |  |  |  | 
O=C(O)c1cc(=O)c2ccccc2[nH]1 [kynurenic acid] |  |  | increase | increase | downregulate | downregulate | less visible or less noticeable | less visible and less noticeable and appeared to be filling in | approximately 2 weeks | markedly less apparent | significant reduction
